Test results from patent US20030216293A1, “Use of composition comprising at least one substance within the group GnRH-analogues for treatment of obsessive -compulsive disorder (OCD)” (priority 1998, published 2003).

Tests used:
[1] = test system: patient with a severe form of OCD; assay: Case study: treatment of a patient with a severe form of OCD; assay type: in vivo, human
Method: The GnRH-analogue triptorelin is available in a pharmaceutical preparation (Decapeptyl® Depot). In the use of this preparation, an injection is administered containing triptorelin embonate in a dose corresponding to 3.75 mg triptorelin. Injections with this dose are given intramuscularly. They should be repeated every fourth week from the first injection.
A detailed case study of the treatment of a patient with a severe form of OCD is disclosed in the following, as supporting evidence of the effect of the method.
A then person was referred to a psychiatric specialist clinic from another qualified psychiatrist for evaluation and treatment of a severe condition of OCD.
The situation when the patient came to the clinic was that they had sickness pension since more than ten years. They lived alone in a small apartment which they hardly ever left. Obsessions and compulsive rituals occupied most of their time. They repeated against their will meaningless strings of words silently during several hours every day. They felt they had to read the newspaper according to certain ritual patterns; if they did anything wrong, they had to start again from the beginning. Sometimes, it took them the whole day to read the newspaper. […] Among other things, they placed their books so that the covers were strictly oriented along north-south lines. Their contacts with other persons were highly restraint and mainly limited to some relatives.
The clinical diagnosis was that they suffered from a very serious form of OCD. They were also found to be intelligent without any signs of any other mental illness or personality disorder. Thus, it was a clearly defined case of OCD.
During long periods of time the patient had been treated with the drugs which presently are considered to have the best effect against OCD. In the treatment of the patient they had also been given supportive psychotherapy.
In order to overcome this, treatment with the long-acting GnRH-analogue triptorelin (Decapeptyl® Depot) was given every fourth week as deep intramuscular depot injections with a dose corresponding to 3.75 mg triptorelin in each injection.

[2] = test system: symptoms of androgenic hyperactivity; assay: Case study: treatment against the patient's symptoms of androgenic hyperactivity; assay type: in vivo, human; conditions: one patient (male pattern baldness, sebaceous skin, acne, sexual drive)
Method: An endocrinological investigation was performed, based upon their symptoms of androgenic hyperactivity.

[3] = one patient, 3.75 mg i.m. depot every fourth week, after two plus another two months

SMILES | effect on OCD ([1]; one patient, given as anti-androgenic treatment) | improvement of OCD on previous treatment ([1]; same patient, treated before triptorelin) | effect on symptoms of androgenic hyperactivity [2] | OCD-symptoms, initial phase of treatment ([1]; one patient, 3.75 mg deep intramuscular depot injection every fourth week, initially) | patient's condition after two months treatment ([1]; one patient, 3.75 mg i.m. depot every fourth week, after two months) | obsessive thoughts after another two months [1, 3] | patient's condition after another two months [1, 3] | clinical outcome of very severe OCD ([1]; one patient, after three months of treatment)
CC(=O)O[C@]1(C(C)=O)CC[C@H]2[C@@H]3C=C(Cl)C4=CC(=O)[C@@H]5C[C@@H]5[C@]4(C)[C@H]3CC[C@@]21C [cyproterone acetate] | without any obvious effect | without any major improvement | without any significant effects |  |  |  |  | 
CC(C)C[C@H](NC(=O)[C@@H](Cc1c[nH]c2ccccc12)NC(=O)[C@H](Cc1ccc(O)cc1)NC(=O)[C@H](CO)NC(=O)[C@H](Cc1c[nH]c2ccccc12)NC(=O)[C@H](Cc1c[nH]cn1)NC(=O)[C@@H]1CCC(=O)N1)C(=O)N[C@@H](CCCNC(=N)N)C(=O)N1CCC[C@H]1C(=O)NCC(N)=O [triptorelin] |  |  |  | accentuation of the patients OCD-symptoms | began to feel better | all obsessive thoughts had disappeared | dramatically better | substantially recovered
